Data from PubChem BioAssay (NCI).
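The concentration for 50% growth inhibition is given as GI50. Definition used: TGI = concentration required for complete inhibition of growth.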

How the values were obtained:
Experiment in all cases: DTP human tumour cell line panel, 384-well format
[1] = test system: HCC-2998 colon
[2] = test system: SN12C renal
[3] = test system: ACHN renal
[4] = test system: MDA-MB-435 melanoma
[5] = test system: K-562 leukemia
[6] = test system: SNB-75 CNS
[7] = test system: SK-MEL-5 melanoma
[8] = test system: NCI-H322M lung
[9] = test system: IGROV1 ovarian
[10] = test system: MCF7 breast
[11] = test system: SNB-19 CNS
[12] = test system: SF-539 CNS
[13] = test system: SF-268 CNS
[14] = test system: MDA-MB-231 breast
[15] = test system: SW-620 colon
[16] = test system: HL-60(TB) leukemia
[17] = test system: LOX IMVI melanoma
[18] = test system: OVCAR-4 ovarian
[19] = test system: NCI-H460 NSCLC
[20] = test system: T-47D breast
[21] = test system: HS 578T breast
[22] = test system: PC-3 prostate
[23] = test system: CCRF-CEM leukemia
[24] = test system: NCI-H522 lung
[25] = test system: COLO 205 colon
[26] = test system: RXF 393 renal
[27] = test system: UO-31 renal
[28] = test system: MDA-MB-468 breast
[29] = test system: OVCAR-5 ovarian

`CCCCCCCC/C=C/CCCCCCCC(=O)OC[C@H]1O[C@@H](n2ccc(N)nc2=O)C(F)(F)[C@@H]1O` was tested, and the GI50 [1] was less than 0.01 µM, the TGI [1] was 0.0111 µM and the GI50 [2] was less than 0.01 µM. The TGI [2] was 0.0399 µM, the GI50 [3] was less than 0.01 µM and the TGI [3] was less than 0.01 µM. The GI50 [4] was 0.138 µM, the TGI [4] was 15.6 µM and the GI50 [5] was less than 0.01 µM. The TGI [5] was 15 µM, the GI50 [6] was less than 0.01 µM and the TGI [6] was 0.0492 µM. The GI50 [7] was less than 0.01 µM, the TGI [7] was 0.0247 µM and the GI50 [8] was 1.31 µM. The TGI [8] was greater than 100 µM, the GI50 [9] was less than 0.01 µM and the TGI [9] was 81.4 µM. The GI50 [10] was less than 0.01 µM, the TGI [10] was 14.1 µM and the GI50 [11] was less than 0.01 µM. The TGI [11] was 0.518 µM, the GI50 [12] was less than 0.01 µM and the TGI [12] was less than 0.01 µM. For the same compound, the GI50 [13] was less than 0.01 µM, the TGI [13] was less than 0.01 µM and the GI50 [14] was 0.234 µM. The TGI [14] was 13.5 µM, the GI50 [15] was less than 0.01 µM and the TGI [15] was 46 µM. The GI50 [16] was less than 0.01 µM, the TGI [16] was less than 0.01 µM and the GI50 [17] was less than 0.01 µM. It also gave a TGI [17] of 0.0188 µM, a GI50 [18] of 38.8 µM and a TGI [18] greater than 100 µM. It also gave a GI50 [19] of less than 0.01 µM, a TGI [19] of less than 0.01 µM and a GI50 [20] of less than 0.01 µM. For the same compound, the TGI [20] was 1.56 µM, the GI50 [21] was less than 0.01 µM and the TGI [21] was 16.5 µM. The GI50 [22] was 2.05 µM, the TGI [22] was 35.6 µM and the GI50 [23] was less than 0.01 µM. It also gave a TGI [23] of less than 0.01 µM, a GI50 [24] of less than 0.01 µM and a TGI [24] of 2.22 µM. The GI50 [25] was less than 0.01 µM, the TGI [25] was 0.0496 µM and the GI50 [26] was less than 0.01 µM. It also gave a TGI [26] of 0.0902 µM, a GI50 [27] of less than 0.01 µM and a TGI [27] of less than 0.01 µM. The GI50 [28] was less than 0.01 µM, the TGI [28] was less than 0.01 µM and the GI50 [29] was less than 0.01 µM. The TGI [29] was greater than 100 µM.
